Measurements published in PubChem BioAssay AID1259408 (Genetic Toxicology Data Bank (GENE-TOX), 2018).
Calls of active or inactive are those of the source. No rule for the calls is given here.

Test system: GENE-TOX genotoxicity assays, various organisms and cells
Test: GENE-TOX mutagenicity studies
Conditions: for call: Assay Type: In vivo carcinogenicity studies
[1] = Species/Cell Type: Saccharomyces cerevisiae, Assay Type: Mitotic recombination or gene conversion, Assay Code: YEH-, Evaluation Type: Evaluation A (Pre-1980)
[2] = Species/Cell Type: Salmonella typhimurium, Assay Type: Forward and reverse gene mutation, host-mediated assay, Assay Code: HMA-, Evaluation Type: Evaluation A (Pre-1980)
[3] = Species/Cell Type: Syrian hamster embryo (SHE) cells, Assay Type: Cell transformation, clonal assay, Assay Code: CTC+, Evaluation Type: Evaluation A (Pre-1980)
[4] = Species/Cell Type: Salmonella typhimurium (one or more of the five standard strains: TA98, TA100, TA1535, TA1537, and TA1538), Assay Type: Histidine reverse gene mutation, Ames assay, Assay Code: SAL+, Evaluation Type: Evaluation A (Pre-1980)
[5] = Species/Cell Type: Drosophila melanogaster, Assay Type: Sex-linked recessive lethal gene mutation, Assay Code: SRL+, Evaluation Type: Evaluation A (Pre-1980)
[6] = Species/Cell Type: Salmonella typhimurium (one or more of the five standard strains: TA98, TA100, TA1535, TA1537, and TA1538), Assay Type: Histidine reverse gene mutation, Ames assay, Assay Code: SALT, Evaluation Type: Evaluation A (Pre-1980)
[7] = Species/Cell Type: Bacillus subtilis (H17 vs M45), Assay Type: Rec-assay, spot test, DNA effects (bacterial DNA repair), Assay Code: REWT, Evaluation Type: Evaluation A (Pre-1980)
[8] = Species/Cell Type: Nonhuman, Assay Type: Sister-chromatid exchange (SCE) in vitro, Assay Code: SC2+D, Dose Response: With dose response, Evaluation Type: Evaluation B (Post-1980)
[9] = Species/Cell Type: Salmonella typhimurium (one or more of the five standard strains: TA98, TA100, TA1535, TA1537, and TA1538), Assay Type: Histidine reverse gene mutation, Ames assay, Assay Code: SAL+*, Activation: With metabolic activation, Evaluation Type: Evaluation A (Pre-1980)
[10] = Species/Cell Type: Drosophila melanogaster, Assay Type: Sex-linked recessive lethal gene mutation, Assay Code: SRLT, Evaluation Type: Evaluation A (Pre-1980)

With `O=C1CCC(=O)O1` the mutagenic call (Species/Cell Type: Escherichia coli polA (W3110 vs P3478), Assay Type: Rec-assay, DNA effects (bacterial DNA repair), Assay Code: RE2-, Evaluation Type: Evaluation A (Pre-1980)) was “inactive; negative”, the mutagenic call (Species/Cell Type: Escherichia coli polA (W3119 vs P3478), Assay Type: Rec-assay, DNA effects (bacterial DNA repair), Assay Code: RE1-, Evaluation Type: Evaluation A (Pre-1980)) was “inactive; negative” and the mutagenic call (Species/Cell Type: Mouse lymphoma (L5178Y) cells, Assay Type: Forward gene mutation at the thymidine kinase (TK) locus, chromosome aberrations, Assay Code: L51-, Evaluation Type: Evaluation A (Pre-1980)) was “inactive; negative”. For the same compound, the call (Species/Cell Type: Nonhuman, Assay Code: CCG+L, Evaluation Type: Evaluation A (Pre-1980)) was “active; positive”, the mutagenic call [1] was “inactive; negative” and the mutagenic call (Species/Cell Type: Salmonella typhimurium (one or more of the five standard strains: TA98, TA100, TA1535, TA1537, and TA1538), Assay Type: Histidine reverse gene mutation, Ames assay, Assay Code: SAL-, Evaluation Type: Evaluation A (Pre-1980)) was “inactive; negative”. The mutagenic call [2] was “inactive; negative” and the mutagenic call [3] was “active; positive”.

`c1ccc2c(c1)-c1ccc3ccccc3c1C1OC21` (stereo unspecified) was tested, and the mutagenic call (Species/Cell Type: Mouse prostate cells, Assay Type: Cell transformation, Assay Code: CTM-, Evaluation Type: Evaluation A (Pre-1980)) was “inactive; negative”, the mutagenic call [4] was “active; positive” and the mutagenic call [3] was “active; positive”.

With `CS(=O)(=O)OCCCl` the mutagenic call (Species/Cell Type: Arabidopsis species, Assay Type: Gene mutation, Assay Code: ARM+, Evaluation Type: Evaluation A (Pre-1980)) was “active; positive”, the mutagenic call [5] was “active; positive” and the mutagenic call (Species/Cell Type: Drosophila melanogaster, Sex: Male, Assay Type: Heritable translocation test, chromosome aberrations, Assay Code: DHT+, Evaluation Type: Evaluation A (Pre-1980)) was “active; positive”. For the same compound, the mutagenic call (Species/Cell Type: Vicia faba, Assay Type: Chromosome aberrations, Assay Code: VIC+D, Dose Response: With dose response, Evaluation Type: Evaluation A (Pre-1980)) was “active; positive”.

`OCc1c2c(cc3ccccc13)-c1ccccc1C1OC21` (stereo unspecified) was tested, and the mutagenic call (Species/Cell Type: Mouse prostate cells, Assay Type: Cell transformation, Assay Code: CTM+, Evaluation Type: Evaluation A (Pre-1980)) was “active; positive”.

With `CC(=O)Nc1ccc([C@@H]2O[C@H]2c2ccccc2)cc1` the mutagenic call [6] was “no conclusion”.

In the case of `CC(C)[C@@](O)(C(=O)OCC1=CCN2CCC[C@@H]12)[C@@H](C)O`, the mutagenic call (Species/Cell Type: Allium cepa, Assay Type: Chromosome aberrations, Assay Code: ALC+, Evaluation Type: Evaluation A (Pre-1980)) is reported as “active; positive” and the mutagenic call [5] is reported as “active; positive”.

`COP(=S)(OC)SCc1nc(N)nc(N)n1` was tested, and the mutagenic call (Species/Cell Type: Hordeum vulgare (barley), Assay Type: Chromosome aberrations, Assay Code: HOC-, Evaluation Type: Evaluation A (Pre-1980)) was “inactive; negative”.

`c1ccc(Nc2ccccc2)cc1` was tested, and the mutagenic call (Species/Cell Type: Syrian hamster embryo (SA7/SHE) cells, Assay Type: Cell transformation, viral enhanced, Assay Code: CT7+, Evaluation Type: Evaluation A (Pre-1980)) was “active; positive”.

For `CCCC(C)(C)C(=O)Nc1ccc(Cl)cc1`, the mutagenic call (Species/Cell Type: Saccharomyces cerevisiae, Assay Type: Mitotic recombination or gene conversion, Assay Code: YEC-, Evaluation Type: Evaluation A (Pre-1980)) was “inactive; negative”.

In the case of `CCS(=O)(=O)OC`, the mutagenic call (Species/Cell Type: Glycine max (soybean), Assay Type: Gene mutation, Assay Code: GLM+, Evaluation Type: Evaluation A (Pre-1980)) is reported as “active; positive”, the mutagenic call (Species/Cell Type: Hordeum vulgare (barley), Assay Type: Chromosome aberrations, Assay Code: HOC+, Evaluation Type: Evaluation A (Pre-1980)) is reported as “active; positive” and the mutagenic call (Species/Cell Type: Hordeum vulgare (barley), Assay Type: Gene mutation, Assay Code: HOM+D, Dose Response: With dose response, Evaluation Type: Evaluation A (Pre-1980)) is reported as “active; positive”. For the same compound, the mutagenic call (Species/Cell Type: Rabbit, Sex: Male, Assay Type: Sperm morphology, Assay Code: SPRT, Evaluation Type: Evaluation A (Pre-1980)) was “no conclusion”.

In the case of `Cc1cc(C(=C2C=CC(=Nc3ccc(S(=O)(=O)O)cc3)C=C2)c2ccc(Nc3ccc(S(=O)(=O)O)cc3)cc2)cc(S(=O)(=O)O)c1N`, the mutagenic call [7] is reported as “no conclusion”.

`Cc1nc(-c2ccc([N+](=O)[O-])o2)cs1` was tested, and the mutagenic call [8] was “active; positive” and the mutagenic call [4] was “active; positive”.

For `COC(=O)C[C@@H]1Cc2cc3c(-c4c(OC)cc(O)c5c(O)c6c(cc45)C[C@@H](CC(=O)OC)OC6=O)c(OC)cc(O)c3c(O)c2C(=O)O1`, the mutagenic call [1] was “inactive; negative” and the mutagenic call [6] was “no conclusion”.

In the case of `Nc1ccc(Oc2ccc(N)c(Cl)c2)cc1Cl`, the call (Species/Cell Type: Nonhuman, Assay Code: CCG+, Evaluation Type: Evaluation A (Pre-1980)) is reported as “active; positive”.

With `Cc1ccc2ncccc2c1` the mutagenic call [9] was “active; positive”.

With `CN(C)CCOc1ccc2c(c1)CC/C(=C\c1ncc([N+](=O)[O-])n1C)C2=O` the mutagenic call (Species/Cell Type: Neurospora crassa, Assay Type: Forward gene mutation, Assay Code: NEF+, Evaluation Type: Evaluation A (Pre-1980)) was “active; positive” and the mutagenic call (Species/Cell Type: Neurospora crassa, Assay Type: Reverse gene mutation, Assay Code: NER+, Evaluation Type: Evaluation A (Pre-1980)) was “active; positive”.

`N#[N+]c1nc[nH]c1C(N)=O` was tested, and the mutagenic call [4] was “active; positive”.

With `CCBr` the mutagenic call [10] was “no conclusion”.

With `COc1cc(C(=O)CCN2CCCC2)ccc1O` the mutagenic call (Species/Cell Type: Salmonella typhimurium, Assay Type: Forward and reverse gene mutation, host-mediated assay, Assay Code: HMAT, Evaluation Type: Evaluation A (Pre-1980)) was “no conclusion”.

For `CCCCCCCC(=O)Oc1c(I)cc(C#N)cc1I`, the mutagenic call [7] was “no conclusion”.

With `CCCCCN(CCCCO)N=O` the mutagenic call [9] was “active; positive”.

With `COc1cc(O)c2c(=O)c(O)c(-c3ccc(O)c(O)c3)oc2c1` the mutagenic call (Species/Cell Type: Mammalian polychromatic erythrocytes, Assay Type: Micronucleus test, chromosome aberrations, Assay Code: MNTT, Evaluation Type: Evaluation B (Post-1980)) was “no conclusion”.

For `O=[N+]([O-])c1cccc2cn[nH]c12`, the mutagenic call [4] was “active; positive”.

In the case of `c1cc[n+]2c(c1)-c1cccc[n+]1CC2`, the mutagenic call [10] is reported as “no conclusion”, the mutagenic call (Species/Cell Type: Rodents, Sex: Male, Assay Type: Dominant lethal test, Assay Code: DLT-, Evaluation Type: Evaluation A (Pre-1980)) is reported as “inactive; negative” and the mutagenic call (Species/Cell Type: Saccharomyces cerevisiae, Assay Type: Mitotic recombination or gene conversion, Assay Code: YEC+, Evaluation Type: Evaluation A (Pre-1980)) is reported as “active; positive”.

With `Oc1ccc2ccc3c4ccccc4cc4ccc1c2c43` the mutagenic call (Species/Cell Type: Chinese hamster lung (V79) cells, Assay Type: Forward gene mutation at the HPRT or ouabain locus, Assay Code: V79+/-*, Activation: With metabolic activation, Evaluation Type: Evaluation A (Pre-1980)) was “inactive; positive without activation, negative with activation”, the mutagenic call (Species/Cell Type: Escherichia coli polA (W3110 vs P3478), Assay Type: Rec-assay, DNA effects (bacterial DNA repair), Assay Code: RE2+, Evaluation Type: Evaluation A (Pre-1980)) was “active; positive” and the mutagenic call (Species/Cell Type: Escherichia coli polA (W3119 vs P3478), Assay Type: Rec-assay, DNA effects (bacterial DNA repair), Assay Code: RE1T, Evaluation Type: Evaluation A (Pre-1980)) was “no conclusion”. For the same compound, the call (Species/Cell Type: Nonhuman, Assay Code: CCGT, Evaluation Type: Evaluation A (Pre-1980)) was “no conclusion”, the mutagenic call [1] was “inactive; negative” and the mutagenic call [4] was “active; positive”. For the same compound, the mutagenic call [2] was “inactive; negative”.

In the case of `COCCOC1=C(N2CC2)C(=O)C(OCCOC)=C(N2CC2)C1=O`, the mutagenic call [10] is reported as “no conclusion” and the mutagenic call [8] is reported as “active; positive”.

In the case of `COC[CH2][Hg][Cl]`, the mutagenic call (Species/Cell Type: Drosophila melanogaster, Assay Type: Aneuploidy, sex chromosome gain, chromosome aberrations, Assay Code: DAG-F-M, Evaluation Type: Evaluation A (Pre-1980)) is reported as “inactive; negative” and the mutagenic call (Species/Cell Type: Drosophila melanogaster, Assay Type: Aneuploidy, whole sex chromosome loss, chromosome aberrations, Assay Code: DAC-M-F, Evaluation Type: Evaluation A (Pre-1980)) is reported as “inactive; negative”.
